Measurements from patent US11071300B2, “Pesticidally active pyrazole derivatives” (SYNGENTA PARTICIPATIONS AG, priority 2017, dated 2021).
Like-named read-outs stand apart in the source and are kept apart here.

Assays:
Format in all cases: in vivo
[1] = tested on: Euschistus heros; assay: Euschistus heros (neotropical brown stink bug) soybean leaf test; conditions: 120 h, read-out: control (mortality and growth inhibition)
Protocol: Euschistus heros (Neotropical Brown Stink Bug):
Soybean leaves on agar in 24-well microtiter plates were sprayed with aqueous test solutions prepared from 10′000 ppm DMSO stock solutions. After drying the leaves were infested with N2 nymphs. The samples were assessed for mortality and growth inhibition in comparison to untreated samples 5 days after infestation.

[2] = tested on: Thrips tabaci; assay: Thrips tabaci (onion thrips) leaf disc test; conditions: foliar, 144 h, read-out: control (mortality)
Protocol: Thrips tabaci (Onion Thrips):
(§1) Sunflower leaf discs were placed on agar in 24-well microtiter plates and sprayed with aqueous test solutions prepared from 10′000 ppm DMSO stock solutions. After drying the leaf discs were infested with a thrips population of mixed ages. The samples were assessed for mortality 6 days after infestation.

[3] = tested on: Plutella xylostella; assay: Plutella xylostella (diamond back moth) artificial diet test; conditions: 120 h, read-out: control (mortality and growth inhibition)
Protocol: Plutella xylostella (Diamond Back Moth):
(§2) 24-well microtiter plates with artificial diet were treated with aqueous test solutions prepared from 10′000 ppm DMSO stock solutions by pipetting. After drying, the plates were infested with L2 larvae (10 to 15 per well). The samples were assessed for mortality and growth inhibition in comparison to untreated samples 5 days after infestation.

[4] = tested on: Spodoptera littoralis; assay: Spodoptera littoralis (Egyptian cotton leaf worm) leaf disc test; conditions: foliar, 72 h, application rate 200 ppm, cotton leaf discs sprayed, L1 larvae, 3 days after infestation, read-out: control (at least one of mortality, anti-feedant effect, growth inhibition)
How it was run: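 Cotton leaf discs on agar were sprayed with aqueous dilutions of 10′000 ppm DMSO stocks, dried and infested with five L1 larvae. Mortality, anti-feedant effect and growth inhibition were scored against untreated samples 3 days after infestation. Control = any of these higher than untreated.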

[5] = tested on: Tetranychus urticae; assay: Tetranychus urticae (two-spotted spider mite) leaf disc test; conditions: foliar, 192 h, read-out: control (mortality on mixed population, mobile stages)
Protocol: Tetranychus urticae (Two-Spotted Spider Mite):
as §1, with “Bean” for “Sunflower”, “discs” for “discs were placed”, “were” for “and”, “mite” for “thrips”, “on mixed population (mobile stages) 8” for “6”

[6] = tested on: Myzus persicae; assay: Myzus persicae (green peach aphid) leaf disc test; conditions: foliar, 144 h, read-out: control (mortality)
Protocol: Myzus persicae (Green Peach Aphid):
Sunflower leaf discs were placed on agar in a 24-well microtiter plate and sprayed with test solutions at an application rate of 200 ppm. After drying, the leaf discs were infested with an aphid population of mixed ages. After an incubation period of 6 DAT, samples were checked for mortality.

[7] = tested on: Diabrotica Balteata; assay: Diabrotica balteata (corn root worm) maize sprout test; conditions: 96 h, read-out: control (mortality and growth inhibition)
Protocol: Diabrotica Balteata, (Corn Root Worm)
as §2, with “Maize sprouts, placed on an agar layer in 24-well” for “24-well”, “plates” for “plates with artificial diet”, “spraying.” for “pipetting.”, “(6” for “(10”, “10” for “15”, “4” for “5”

[8] = application rate 200 ppm, soybean leaves sprayed, N2 nymphs, 5 days after infestation
[9] = application rate 200 ppm, sunflower leaf discs sprayed, mixed ages, 6 days after infestation
[10] = application rate 200 ppm, artificial diet, L2 larvae, 5 days after infestation
[11] = application rate 200 ppm, bean leaf discs sprayed, 8 days after infestation
[12] = application rate 200 ppm, sunflower leaf discs sprayed, mixed ages, 6 DAT
[13] = application rate 200 ppm, maize sprouts sprayed, L2 larvae, 4 days after infestation

COC(=O)N(C(=O)c1cc(-c2cnn(-c3c(C(F)(F)F)c(OS(=O)(=O)C(F)(C(F)(F)F)C(F)(F)F)nn3C)c2)ccc1Cl)C1(C#N)CC1 [Compound 52, [5-[4-[4-chloro-3-[(1-cyanocyclopropyl)-methoxycarbonyl-carbamoyl]phenyl]pyrazol-1-yl]-1-methyl-4-(trifluoromethyl)pyrazol-3-yl] 1,1,1,2,3,3,3-heptafluoropropane-2-sulfonate]
≥ 80%: mortality at 200 ppm [1] | mortality at 200 ppm [2] | mortality at 200 ppm [3] | percent control (mortality, anti-feedant effect or growth inhibition) at 200 ppm [4] | mortality at 200 ppm [5] | mortality at 200 ppm [6] | mortality at 200 ppm [7]

Cn1nc(OS(=O)(=O)C(F)(C(F)(F)F)C(F)(F)F)c(C(F)(F)F)c1-c1cc(-c2ccc(Cl)c(C(=O)NC3(C#N)CC3)c2)on1 [Compound 36, [5-[5-[4-chloro-3-[(1-cyanocyclopropyl)carbamoyl]phenyl]isoxazol-3-yl]-1-methyl-4-(trifluoromethyl)pyrazol-3-yl] 1,1,1,2,3,3,3-heptafluoropropane-2-sulfonate]
≥ 80%: mortality at 200 ppm [1, 8] | mortality at 200 ppm [2, 9] | mortality at 200 ppm [3, 10] | percent control (mortality, anti-feedant effect or growth inhibition) at 200 ppm [4] | mortality at 200 ppm [5, 11] | mortality at 200 ppm [6, 12] | mortality at 200 ppm [7, 13]

CN(C(=O)c1cc(-c2cc(-c3c(C(F)(F)F)c(OS(=O)(=O)C(F)(C(F)(F)F)C(F)(F)F)nn3C)no2)ccc1Cl)C1CC1 [Compound 34, [5-[5-[4-chloro-3-[cyclopropyl(methyl)carbamoyl]phenyl]isoxazol-3-yl]-1-methyl-4-(trifluoromethyl)pyrazol-3-yl] 1,1,1,2,3,3,3-heptafluoropropane-2-sulfonate]
≥ 80%: mortality at 200 ppm [1, 8] | mortality at 200 ppm [2, 9] | mortality at 200 ppm [3, 10] | percent control (mortality, anti-feedant effect or growth inhibition) at 200 ppm [4] | mortality at 200 ppm [5, 11] | mortality at 200 ppm [6, 12] | mortality at 200 ppm [7, 13]

COCC(=O)N(C(=O)c1cc(-c2cnn(-c3c(C(F)(F)F)c(OS(=O)(=O)C(F)(C(F)(F)F)C(F)(F)F)nn3C)c2)ccc1Cl)C1(C#N)CC1 [Compound 62, [5-[4-[4-chloro-3-[(1-cyanocyclopropyl)-(2-methoxyacetyl)carbamoyl]phenyl]pyrazol-1-yl]-1-methyl-4-(trifluoromethyl)pyrazol-3-yl] 1,1,1,2,3,3,3-heptafluoropropane-2-sulfonate]
≥ 80%: mortality at 200 ppm [1, 8] | mortality at 200 ppm [2, 9] | mortality at 200 ppm [3, 10] | percent control (mortality, anti-feedant effect or growth inhibition) at 200 ppm [4] | mortality at 200 ppm [5, 11] | mortality at 200 ppm [6, 12] | mortality at 200 ppm [7, 13]

CCN(C(=O)c1cc(-c2cc(-c3c(C(F)(F)F)c(OS(=O)(=O)C(F)(C(F)(F)F)C(F)(F)F)nn3C)no2)ccc1Cl)C1CC1 [Compound 35, [5-[5-[4-chloro-3-[cyclopropyl(ethyl)carbamoyl]phenyl]isoxazol-3-yl]-1-methyl-4-(trifluoromethyl)pyrazol-3-yl] 1,1,1,2,3,3,3-heptafluoropropane-2-sulfonate]
≥ 80%: mortality at 200 ppm [1, 8] | mortality at 200 ppm [2, 9] | mortality at 200 ppm [3, 10] | percent control (mortality, anti-feedant effect or growth inhibition) at 200 ppm [4] | mortality at 200 ppm [5, 11] | mortality at 200 ppm [6, 12] | mortality at 200 ppm [7, 13]

CN(C(=O)c1cc(-c2cnn(-c3c(C(F)(F)F)c(OS(=O)(=O)C(F)(C(F)(F)F)C(F)(F)F)nn3C)c2)cnc1Cl)C1(C#N)CC1 [Compound 25, [5-[4-[6-chloro-5-[(1-cyanocyclopropyl)-methyl-carbamoyl]-3-pyridyl]pyrazol-1-yl]-1-methyl-4-(trifluoromethyl)pyrazol-3-yl] 1,1,1,2,3,3,3-heptafluoropropane-2-sulfonate]
≥ 80%: mortality at 200 ppm [1, 8] | mortality at 200 ppm [2, 9] | mortality at 200 ppm [3, 10] | percent control (mortality, anti-feedant effect or growth inhibition) at 200 ppm [4] | mortality at 200 ppm [5, 11] | mortality at 200 ppm [6, 12] | mortality at 200 ppm [7, 13]

CCOC(=O)N(C(=O)c1cc(-c2cnn(-c3c(C(F)(F)F)c(OS(=O)(=O)C(F)(C(F)(F)F)C(F)(F)F)nn3C)c2)ccc1Cl)C1(C#N)CC1 [Compound 51, [5-[4-[4-chloro-3-[(1-cyanocyclopropyl)-ethoxycarbonyl-carbamoyl]phenyl]pyrazol-1-yl]-1-methyl-4-(trifluoromethyl)pyrazol-3-yl] 1,1,1,2,3,3,3-heptafluoropropane-2-sulfonate]
≥ 80%: mortality at 200 ppm [1] | mortality at 200 ppm [2] | mortality at 200 ppm [3] | percent control (mortality, anti-feedant effect or growth inhibition) at 200 ppm [4] | mortality at 200 ppm [5] | mortality at 200 ppm [6] | mortality at 200 ppm [7]

Cn1nc(OS(=O)(=O)C(F)(C(F)(F)F)C(F)(F)F)c(C(F)(F)F)c1-c1cc(-c2ccc(Cl)c(C(=O)NC3CC3)c2)on1 [Compound 33, [5-[5-[4-chloro-3-(cyclopropylcarbamoyl)phenyl]isoxazol-3-yl]-1-methyl-4-(trifluoromethyl)pyrazol-3-yl] 1,1,1,2,3,3,3-heptafluoropropane-2-sulfonate]
≥ 80%: mortality at 200 ppm [1, 8] | mortality at 200 ppm [2, 9] | mortality at 200 ppm [3, 10] | percent control (mortality, anti-feedant effect or growth inhibition) at 200 ppm [4] | mortality at 200 ppm [5, 11] | mortality at 200 ppm [6, 12] | mortality at 200 ppm [7, 13]

Cn1nc(OS(=O)(=O)C(F)(C(F)(F)F)C(F)(F)F)c(C(F)(F)F)c1-n1cc(-c2ccc(Cl)c(C(=O)NC3(C#N)CC3)c2)cn1 [Compound 2, [5-[4-[4-chloro-3-[(1-cyanocyclopropyl)carbamoyl]phenyl]pyrazol-1-yl]-1-methyl-4-(trifluoromethyl)pyrazol-3-yl] 1,1,1,2,3,3,3-heptafluoropropane-2-sulfonate]
≥ 80%: mortality at 200 ppm [1, 8] | mortality at 200 ppm [2, 9] | mortality at 200 ppm [3, 10] | percent control (mortality, anti-feedant effect or growth inhibition) at 200 ppm [4] | mortality at 200 ppm [5, 11] | mortality at 200 ppm [6, 12] | mortality at 200 ppm [7, 13]

CC(C)C(=O)N(C(=O)c1cc(-c2cnn(-c3c(C(F)(F)F)c(OS(=O)(=O)C(F)(C(F)(F)F)C(F)(F)F)nn3C)c2)ccc1Cl)C1(C#N)CC1 [Compound 60, [5-[4-[4-chloro-3-[(1-cyanocyclopropyl)-(2-methylpropanoyl)carbamoyl]phenyl]pyrazol-1-yl]-1-methyl-4-(trifluoromethyl)pyrazol-3-yl] 1,1,1,2,3,3,3-heptafluoropropane-2-sulfonate]
≥ 80%: mortality at 200 ppm [1, 8] | mortality at 200 ppm [2, 9] | mortality at 200 ppm [3, 10] | percent control (mortality, anti-feedant effect or growth inhibition) at 200 ppm [4] | mortality at 200 ppm [5, 11] | mortality at 200 ppm [6, 12] | mortality at 200 ppm [7, 13]

CCN(C(=O)c1cc(-c2cnn(-c3c(C(F)(F)F)c(OS(=O)(=O)C(F)(C(F)(F)F)C(F)(F)F)nn3C)c2)ccc1Cl)C1CC1 [Compound 12, [5-[4-[4-chloro-3-[cyclopropyl(ethyl)carbamoyl]phenyl]pyrazol-1-yl]-1-methyl-4-(trifluoromethyl)pyrazol-3-yl] 1,1,1,2,3,3,3-heptafluoropropane-2-sulfonate]
≥ 80%: mortality at 200 ppm [1, 8] | mortality at 200 ppm [2, 9] | mortality at 200 ppm [3, 10] | percent control (mortality, anti-feedant effect or growth inhibition) at 200 ppm [4] | mortality at 200 ppm [5, 11] | mortality at 200 ppm [6, 12] | mortality at 200 ppm [7, 13]

CN(C(=O)c1cc(-c2cnn(-c3c(C(F)(F)F)c(OS(=O)(=O)C(F)(C(F)(F)F)C(F)(F)F)nn3C)c2)ccc1Cl)C1(C#N)CC1 [Compound 18, [5-[4-[4-chloro-3-[(1-cyanocyclopropyl)-methyl-carbamoyl]phenyl]pyrazol-1-yl]-1-methyl-4-(trifluoromethyl)pyrazol-3-yl] 1,1,1,2,3,3,3-heptafluoropropane-2-sulfonate]
≥ 80%: mortality at 200 ppm [1, 8] | mortality at 200 ppm [2, 9] | mortality at 200 ppm [3, 10] | percent control (mortality, anti-feedant effect or growth inhibition) at 200 ppm [4] | mortality at 200 ppm [5, 11] | mortality at 200 ppm [6, 12] | mortality at 200 ppm [7, 13]
